Entries after “also recorded” stand apart in the source; their conditions may differ. Where two headings read alike, the source gives them in different places.
Tests used:
HIV = details: cited from earlier work
HIV-1 = test: Inhibition of HIV-1-induced cytopathic effect (CPE) in MT-4 cells; assay type: cell-based, HIV-1 (LAV-1) in human MT-4 cells; details: for IC100: Human immunodeficiency virus 1, MT4, 120 h; for r = CC0/IC100: 7200 min; for CPE inhibitory effect (in words): HIV-1; for anti-HIV-1 activity: at concentrations up to 500 μg/mL
Protocol: (§1) In the experiments, MT-4 cells were used. The cells were incubated at 37° C. under 5% CO2 in RPMI-1640 medium (FCS, Flow laboratories, North Ryde, Australia) supplemented with 100 μg/mL of streptomycin (Meiji Seika, Tokyo, Japan), and 100 U/mL of penicillin G (Banyu Pharmaceutical, Tokyo, Japan).
HIV-1 was obtained from culture supernatant of MOLT-4 cells that had been persistently infected with LAV-1.
j) Assay of cytopathic effect(CPE) of HIV-1 in MT-4 cells
(§2) The inhibitory effect of test compounds on HIV-1-induced cytopathogenicity was measured by the method of Harada, Koyanagi & Yamamoto (1985). MT-4 cells were infected for 1 hour with HIV-1 (at TCID50 of 0.001/well) and non-adsorbed virus was removed by washing. Then, the cells were resuspended in RPMI-1640 medium at a concentration of 1.5×10^5 cells/mL. A 200 μL/well of the cell suspension was cultured for 5 days in days in a 96-well culture plate containing various concentrations (12 doses, maximum 1,000 μg/mL and minimum […]) of the test compounds. Control assays were performed in the absence of test compounds with HIV-1-infected and uninfected cultures. On day 5, the IC100 of the test compound required for completely preventing HIV-1-induced CPE(IC) was determined through an optical microscope and the cell growth was examined to give the CC0 that reduces the viability of MT-4 cells.
A variety of phorbol esters and related compounds were tested for their ability to inhibit the replication and infectivity of HIV-1 in MT-4 cells, a human CD4-positive cell line continually infected with HTLV-1, and the results are presented in Table 3.

[1] = Cell growth / viability of MT-4 cells (cytotoxicity); assay type: cell-based; details: human, day 5, read-out: CC0 (concentration that reduces viability of MT-4 cells; minimum cytotoxic concentration)
Protocol: as §1, §2

protein kinase C (PKC) = assay type: biochemical, mouse; details: for % Activity of PKC: relative to TPA positive control; for activation of PKC (in words): concentration not given
Protocol: After addition of 0.55 nM [γ-^32 P] ATP (50×10^3 cpm/nmol), the reaction mixture was mixed and allowed to be kept at 37° C. for 30 minutes. Then the reactions were terminated by the addition of 10 μl of ice-cold stop reagent. Aliquots of 35 μL were transferred to the center of peptide binding discs. After 10 minutes, the discs were washed two times with 75 mM orthophosphoric acid. The activity of ^32 P-labeled samples was counted in 10/mL of a scintillation fluid for 1 minute. […] Blank (in the absence of PKC) and control (in the absence of TPA or tested samples) were also carried out. One unit of PKC was defined as that amount of enzyme, which incorporated 1 nmol of phosphate from ATP into its substrate, peptide, per minute under the assay conditions, described above.

P-388 leukemia = P-388 leukemia in mice; cited from earlier work
[2] = MT-4 cells, 5 days, NE: Not effective, read-out: Anti-HIV-1 IC100 (complete prevention of HIV-1-induced CPE)
[3] = 10 ng/mL (standard concentration)

| SMILES | anti-HIV activity (HIV) | IC100 (HIV-1; [2]) | IC100 (HIV-1; MT-4 cells, read-out: IC100 (complete inhibition of CPE)) | r = CC0/IC100 (HIV-1; MT-4 cells) | MCC at 120 h [1] | % Activity of PKC (protein kinase C (PKC); 10 ng/mL) | PKC activation (in words) (protein kinase C (PKC); 100 ng/mL) | % Activity of PKC (protein kinase C (PKC); 2.7 μg/mL) | PKC activation (in words) (protein kinase C (PKC); 10 to 100 ng/mL) | CPE inhibitory effect (in words) (HIV-1; MT-4 cells) | activation of PKC (in words) (protein kinase C (PKC)) | anti-HIV-1 activity (HIV-1) | PKC activation (in words) (protein kinase C (PKC); [3]) | antileukemic activity (P-388 leukemia) | Anti-HIV-1 IC100 (complete prevention of HIV-1-induced CPE) (HIV-1; MT-4 cells, 5 days, NE: Not effective) | PKC activation (in words) (protein kinase C (PKC); high concentrations) |
| --- | --- | --- | --- | --- | --- | --- | --- | --- | --- | --- | --- | --- | --- | --- | --- | --- |
| CC(=O)O[C@@]12C[C@@H](C)[C@@]3(O)[C@@H](C=C(CO)C[C@]4(O)C(=O)C(C)=C[C@@H]34)[C@@H]1C2(C)C [12-Deoxyphorbol-13-acetate] | having an anti-HIV activity | – | – | – | – | – | – | – | – | – | – | – | – | – | – | – |
| CCCCCCCCCC(=O)O[C@@]12[C@H](OC(C)=O)[C@@H](C)[C@@]3(O)[C@@H](C=C(CO)C[C@]4(O)C(=O)C(C)=C[C@@H]34)[C@@H]1C2(C)C [Compound 6, 12-O-Acetylphorbol-13-decanoate] | – | 0.0076 µg/mL | 0.0076 µg/mL | 8220 | 62.5 µg/mL | 0% | No activation of PKC was observed | 17% | no activation; also recorded: did not activate PKC | – | – | – | – | – | – | – |
| C/C=C(\C)C(=O)O[C@@H]1[C@@H](C)[C@@]2(O)[C@@H](C=C(CO)C[C@]3(O)C(=O)C(C)=C[C@@H]23)[C@@H]2C(C)(C)[C@]12OC(=O)C(C)CC (some centres unmarked) [Compound 5, 12-O-Tigioylphorbol-13-(2-methylbutyrate)] | – | 31.3 µg/mL | – | 2.00 | 62.5 µg/mL | 10% | – | 40% | – | weak inhibitory effects against CPE | weak activation of PKC | – | – | – | – | – |
| CC1=C[C@@H]2[C@@H](CC(CO)=C[C@H]3[C@@H]4C(C)(C)[C@]4(O)[C@H](O)[C@@H](C)[C@]23O)C1=O [Compound 20, 4-Deoxy-4α-phorbol] | – | – | – | – | 500 µg/mL | 0% | – | 25% | – | did not show CPE inhibitory effect; also recorded: showed no effect | weak activators of PKC | did not show anti-HIV-1 activity | – | – | – | – |
| CCCCC/C=C\C/C=C\CCCCCCCC(=O)OCC1=C[C@H]2[C@@H]3C(C)(C)[C@]3(OC(C)=O)[C@H](O)[C@@H](C)[C@]2(O)[C@@H]2C=C(C)C(=O)[C@@]2(O)C1 [Compound 1, 13-O-Acetylphorbol-20-(9Z,12Z-octadecadienoate)] | – | 15.6 µg/mL | – | 4.01 | 62.5 µg/mL | 0% | – | – | – | – | – | – | did not activate PKC | – | – | – |
| CCCCCCCCCCCCCC(=O)O[C@@H]1[C@@H](C)[C@@]2(O)[C@@H](C=C(COC(C)=O)C[C@]3(O)C(=O)C(C)=C[C@@H]23)[C@@H]2C(C)(C)[C@]12OC(C)=O [Compound 14, 12-O-Tetradecanoylphorbol-13,20-diacetate] | – | 15.6 µg/mL | – | 4.01 | 62.5 µg/mL | 0% | – | 30% | – | dramatically decreased | dramatically decreased | – | – | – | – | – |
| C/C=C(\C)C(=O)O[C@@H]1[C@@H](C)[C@@]2(O)[C@@H](C=C(CO)C[C@]3(O)C(=O)C(C)=C[C@@H]23)[C@@H]2C(C)(C)[C@]12OC(=O)CCCCCCCCC [12-O-tigloylphorbol-13-decanoate] | – | – | – | – | – | – | – | – | – | – | – | – | – | demonstrated antileukemic activity | – | – |
| CCCCC/C=C\C/C=C\CCCCCCCC(=O)OCC1=C[C@H]2[C@@H]3C(C)(C)[C@]3(OC(C)=O)[C@H](OC(C)=O)[C@@H](C)[C@]2(O)[C@@H]2C=C(C)C(=O)[C@@]2(O)C1 [Compound 13, Phorbol-12,13-diacetate-20-linoleate] | – | 7.81 µg/mL | – | 8.00 | 62.5 µg/mL | 0% | – | 44% | – | Enhancement of the anti-HIV activity | without an increase in the activity of PKC | – | – | – | 7.8 µg/mL | – |
| CC1=C[C@H]2[C@@]3(O)[C@H](C)[C@@H](O)[C@]4(O)[C@H]([C@@H]3C=C(CO)C[C@@]2(O)C1=O)C4(C)C [Compound 19, 4α-Phorbol] | – | – | – | – | 500 µg/mL | 1% | – | 5% | – | did not show CPE inhibitory effect; also recorded: showed no effect | weak activators of PKC | did not show anti-HIV-1 activity | – | – | – | – |
| CC(=O)OCC12CC3(O)C(=O)C1(C)C1C3C3(O)C(C)C(OC(C)=O)C4(OC(C)=O)C(C3C12)C4(C)C (centres unmarked) [Compound 24, Lumiphorbol-12,13,20-triacetate] | – | – | – | – | 500 µg/mL | 0% | – | 93% | – | showed no effect | – | did not show anti-HIV-1 activity | no activation was observed | – | – | enhanced activation of PKC |
| CC(=O)OCC1=C[C@H]2[C@@H]3C(C)(C)[C@]3(OC(C)=O)[C@H](OC(C)=O)[C@@H](C)[C@]2(O)[C@@H]2C=C(C)C(=O)[C@@]2(O)C1 [Compound 11, Phorbol-12,13,20-triacetate] | – | 62.5 µg/mL | – | 2.00 | 125 µg/mL | 0% | – | 15% | – | – | – | – | did not activate PKC | – | – | – |
